One may read the IC50 as the concentration at which inhibition is half-maximal. The low end stands for greater potency, the high end for weaker potency.

Histone deacetylase 1, sequence (Q13547 whole entry): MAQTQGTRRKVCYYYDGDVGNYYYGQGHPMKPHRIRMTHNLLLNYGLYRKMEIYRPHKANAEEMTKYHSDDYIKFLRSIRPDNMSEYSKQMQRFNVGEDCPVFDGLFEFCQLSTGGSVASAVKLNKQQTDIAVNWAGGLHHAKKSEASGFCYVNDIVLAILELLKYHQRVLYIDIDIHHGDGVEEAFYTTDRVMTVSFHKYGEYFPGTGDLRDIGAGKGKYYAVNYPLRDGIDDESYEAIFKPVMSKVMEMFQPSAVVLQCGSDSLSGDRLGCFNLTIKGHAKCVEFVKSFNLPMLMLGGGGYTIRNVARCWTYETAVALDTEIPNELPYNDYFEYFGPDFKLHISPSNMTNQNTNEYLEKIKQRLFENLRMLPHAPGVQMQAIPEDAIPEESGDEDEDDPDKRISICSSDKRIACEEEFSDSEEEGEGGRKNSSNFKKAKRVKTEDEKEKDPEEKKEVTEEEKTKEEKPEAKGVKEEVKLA

This assay concerns the target Histone deacetylase 1 (Homo sapiens, UniProt Q13547). Nature of the assay: Inhibitory activity against human Histone deacetylase 1.
`O=C(/C=C/c1cccc(C(C(=O)Nc2ccccc2)C(=O)Nc2ccccc2)c1)NO` showed an IC50 of 1 nM. That is a single-digit nanomolar value.
As for `O=C(CCCCCC(NC(=O)OCc1ccccc1)C(=O)Nc1cccc2cccnc12)NO` (stereo not drawn), the figure is 2.5 nM.
On to `O=C(CCCCCC(C(=O)Nc1ccc2ncccc2c1)C(=O)Nc1ccc2ncccc2c1)NO`, for which half-maximal inhibition (IC50) required 1 nM.

(Values after ChEMBL document CHEMBL1138830, “On the function of the 14 A long internal cavity of histone deacetylase-like protein: implications for the design of histone deacetylase inhibitors” (J Med Chem, 2004).)
